Measured values from ChEMBL document CHEMBL1201862, “PubChem BioAssay data set” (2004).
Values belong to the molecule of their own block, whether it stands above or below them. Active and inactive are the calls of the source. Unless noted, no cut-off for these calls is given here.

Experiments:
Format in all cases: functional
[1] = system: Vero; experiment: viability of Vero cells under compound – cytotoxicity control for flavivirus capping enzyme inhibitors (AID 588742); conditions: Chlorocebus sabaeus
[2] = target: Glutathione-S-transferase (Schistosoma japonicum, UniProt Q26513); experiment: GST-antibody interaction or FRET quenching – biochemical, TR-FRET, artefact control for Vif-APOBEC3G degradation inhibitor project, dose response (AID 1117362)
[3] = target: Metabotropic glutamate receptor 7 (Homo sapiens, UniProt Q14831); experiment: potentiation of glutamate EC20 at mGlu7 – cell-based, calcium mobilization, Galpha15, dose response (AID 743384)
[4] = Late stage results for the probe development effort to identify inhibitors of Plasmodium falciparum gametocytes: Luminescence-based cell-based high throughput dose response assay to identify inhibitors of viability of late stage Plasmodium falciparum gametocytes.

Sequence of Metabotropic glutamate receptor 7 (Q14831 whole entry): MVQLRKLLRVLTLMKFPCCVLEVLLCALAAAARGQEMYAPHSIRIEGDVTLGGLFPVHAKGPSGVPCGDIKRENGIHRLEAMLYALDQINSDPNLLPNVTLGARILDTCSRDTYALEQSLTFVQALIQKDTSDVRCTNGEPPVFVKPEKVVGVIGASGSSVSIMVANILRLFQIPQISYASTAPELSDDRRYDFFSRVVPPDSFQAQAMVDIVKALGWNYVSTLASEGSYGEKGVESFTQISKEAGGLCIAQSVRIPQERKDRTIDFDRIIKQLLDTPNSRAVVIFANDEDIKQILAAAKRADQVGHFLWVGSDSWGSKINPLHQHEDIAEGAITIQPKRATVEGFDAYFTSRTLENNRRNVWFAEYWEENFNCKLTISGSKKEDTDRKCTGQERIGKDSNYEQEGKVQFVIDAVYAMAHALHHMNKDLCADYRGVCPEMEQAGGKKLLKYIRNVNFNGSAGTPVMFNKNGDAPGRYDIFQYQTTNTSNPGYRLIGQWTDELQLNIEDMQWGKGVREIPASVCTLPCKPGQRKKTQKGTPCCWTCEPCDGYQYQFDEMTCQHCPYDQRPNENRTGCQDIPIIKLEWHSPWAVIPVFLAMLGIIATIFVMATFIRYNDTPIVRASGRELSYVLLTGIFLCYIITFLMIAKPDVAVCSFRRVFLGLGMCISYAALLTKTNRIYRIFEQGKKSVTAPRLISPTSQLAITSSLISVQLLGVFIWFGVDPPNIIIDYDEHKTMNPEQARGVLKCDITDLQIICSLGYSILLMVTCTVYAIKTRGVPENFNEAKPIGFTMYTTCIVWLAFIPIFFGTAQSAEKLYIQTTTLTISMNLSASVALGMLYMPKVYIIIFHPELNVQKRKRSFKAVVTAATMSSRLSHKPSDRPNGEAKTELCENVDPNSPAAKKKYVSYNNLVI
Sequence of Glutathione-S-transferase (Q26513 whole entry): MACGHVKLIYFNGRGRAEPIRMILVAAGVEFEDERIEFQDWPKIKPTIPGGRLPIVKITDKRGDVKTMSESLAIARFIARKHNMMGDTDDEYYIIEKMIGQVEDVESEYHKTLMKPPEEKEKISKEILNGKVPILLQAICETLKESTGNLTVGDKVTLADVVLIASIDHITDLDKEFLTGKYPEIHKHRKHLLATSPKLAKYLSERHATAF

IC50 [2]: > 100 µM (active)
SMILES: Oc1ccccc1/C=N/c1c(-c2ccco2)nc2ccccn12
CC50 [1]: > 40 µM (active)

EC50 [3]: 10 µM (active)
SMILES: CCn1c(C)cc(C(=O)CSc2ccc(NC(C)=O)cc2)c1C

SMILES: O=C(Nc1nccs1)c1cn(-c2ccccc2)nc1-c1ccc(F)cc1
IC50 [4]: > 74.4 µM (inactive)
